In the supplement of paper PMC8149375:

Columns and labels:
Conditions in all cases: treatment: drug alone; 5 days
CAKI-1 [1] = assay: minimum viability across doses, drug alone, relative to DMSO (fraction); higher = less growth inhibition
Experimental: (§1)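 Primary HTS: 8 RCC cell lines treated with 8 doses (up to 10 uM) of each library drug alone for 5 days; viability read by CellTiter-Glo and normalised to DMSO. GI50 was fitted with XLfit (4-parameter), AUC is the area under the dose-response curve, and minimum viability is the lowest fraction of DMSO viability across doses.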

SN12C [2] = assay: as above
Experimental: as §1

TK-10 [3] = assay: as above
Experimental: as §1

A498 [4] = assay: as above
Experimental: as §1

769-P [5] = assay: as above
Experimental: as §1

UO-31 [6] = assay: as above
Experimental: as §1

ACHN [7] = assay: as above
Experimental: as §1

786-O [8] = assay: as above
Experimental: as §1

CAKI-1 [9] = assay: GI50, drug alone; higher = less potent
Experimental: as §1

SN12C [10] = assay: GI50, drug alone; higher = less potent
Experimental: as §1

TK-10 [11] = assay: GI50, drug alone; higher = less potent
Experimental: as §1

A498 [12] = assay: GI50, drug alone; higher = less potent
Experimental: as §1

769-P [13] = assay: GI50, drug alone; higher = less potent
Experimental: as §1

UO-31 [14] = assay: GI50, drug alone; higher = less potent
Experimental: as §1

ACHN [15] = assay: GI50, drug alone; higher = less potent
Experimental: as §1

786-O [16] = assay: GI50, drug alone; higher = less potent
Experimental: as §1

CAKI-1 [17] = assay: AUC of dose-response viability curve, drug alone (arbitrary (AUC of normalised viability)); higher = less growth inhibition
Experimental: as §1

SN12C [18] = assay: as above
Experimental: as §1

TK-10 [19] = assay: as above
Experimental: as §1

A498 [20] = assay: as above
Experimental: as §1

769-P [21] = assay: as above
Experimental: as §1

UO-31 [22] = assay: as above
Experimental: as §1

ACHN [23] = assay: as above
Experimental: as §1

786-O [24] = assay: as above
Experimental: as §1

| SMILES | minimum viability across doses (CAKI-1 [1]) | minimum viability across doses (SN12C [2]) | minimum viability across doses (TK-10 [3]) | minimum viability across doses (A498 [4]) | minimum viability across doses (769-P [5]) | minimum viability across doses (UO-31 [6]) | minimum viability across doses (ACHN [7]) | minimum viability across doses (786-O [8]) | GI50, drug alone (CAKI-1 [9]) [µM] | GI50, drug alone (SN12C [10]) [µM] | GI50, drug alone (TK-10 [11]) [µM] | GI50, drug alone (A498 [12]) [µM] | GI50, drug alone (769-P [13]) [µM] | GI50, drug alone (UO-31 [14]) [µM] | GI50, drug alone (ACHN [15]) [µM] | GI50, drug alone (786-O [16]) [µM] | AUC of dose-response viability curve (CAKI-1 [17]) | AUC of dose-response viability curve (SN12C [18]) | AUC of dose-response viability curve (TK-10 [19]) | AUC of dose-response viability curve (A498 [20]) | AUC of dose-response viability curve (769-P [21]) | AUC of dose-response viability curve (UO-31 [22]) | AUC of dose-response viability curve (ACHN [23]) | AUC of dose-response viability curve (786-O [24]) |
| --- | --- | --- | --- | --- | --- | --- | --- | --- | --- | --- | --- | --- | --- | --- | --- | --- | --- | --- | --- | --- | --- | --- | --- | --- |
| CNC(=O)c1cc(Oc2ccc(NC(=O)Nc3ccc(Cl)c(C(F)(F)F)c3)cc2)ccn1.Cc1ccc(S(=O)(=O)O)cc1 [Sorafenib (Nexavar)] | 0.18 | 0.154 | 0.513 | 0.627 | 0.592 | 0.00476 | 0.0796 | 0.0994 | 9.2 | 5.13 | > 10 | > 10 | > 10 | 0.734 | 8.05 | 4.87 | 3.55 | 2.9 | 3.25 | 3.4 | 3.31 | 2.44 | 3.46 | 2.7 |
| CN1CCN(c2nc(C3=C(c4c[nH]c5ccccc45)C(=O)NC3=O)c3ccccc3n2)CC1 [Sotrastaurin (AEB071)] | 0.783 | 0.91 | 0.805 | 1.12 | 0.969 | 1.38 | 0.743 | 0.911 | > 10 | > 10 | > 10 | > 10 | > 10 | > 10 | > 10 | > 10 | 3.38 | 3.44 | 3.23 | 4.36 | 2.58 | 5.49 | 3.2 | 4 |
| CN[C@@H]1C[C@H]2O[C@@](C)([C@@H]1OC)n1c3ccccc3c3c4c(c5c6ccccc6n2c5c31)C(=O)NC4 [Staurosporine] | 0.00272 | 0.00485 | 0.0227 | 0.0127 | 0.00587 | 0.0116 | 0.00377 | 0.00288 | < 0.003 | 0.0333 | < 0.003 | 0.0909 | < 0.003 | < 0.003 | 0.00533 | < 0.003 | 0.143 | 1.06 | 0.286 | 1.56 | 0.299 | 0.1 | 0.526 | 0.171 |
| CCN(CC)CCNC(=O)c1c(C)[nH]c(/C=C2\C(=O)Nc3ccc(F)cc32)c1C.O=C(O)C[C@H](O)C(=O)O [Sunitinib Malate (Sutent)] | 0.0138 | 0.0296 | 0.186 | 0.21 | 0.156 | 0.0171 | 0.0641 | 0.0182 | 1.49 | 1.9 | 3.29 | 5.2 | 5.36 | 3.15 | 0.65 | 3.98 | 2.77 | 2.6 | 2.82 | 3.58 | 3.15 | 3.93 | 2.33 | 3.62 |
